Experimental findings from article PMC3472544, “Glycosaminoglycan analogs as a novel anti-inflammatory strategy” (Frontiers in Immunology, 2012) are described below.

Molecules are shown by their SMILES.

The target of assay [1] is T1, CCR1 (Homo sapiens).
T1 construct: expressed in transfected cells; host or cells: CHO
Put plainly: Equilibrium competition receptor binding assay (SPA), [125I]-CCL5 on CHO/CCR1 membranes. Conditions: [125I]-CCL5 0.1 nM, CHO/CCR1 membranes, SPA; read-out: IC50 for the inhibition of CCL5 binding to CCR1. Here is the method:
(§1) The assays were carried out on membranes from CHO transfectants expressing CCR1 or CCR5, as described previously (Severin et al., [2010]). Briefly, serial dilutions of the compounds were prepared in binding buffer (50 mM TrisHCl, pH 7.2, containing 1 mM CaCl2, 5 mM MgCl2, and 0.5% BSA). Equal volumes of membrane preparation at 80 μg/ml and scintillation proximity assay (SPA) beads were mixed before adding them to a 96 well filter plate, giving a final membrane concentration in the assay of 20 μg/ml. ^125I labeled chemokines were dissolved in binding buffer at a concentration of 0.4 nM. The assay was started by the addition of 25 μL [^125I]-CCL5 to give a concentration of 0.1 nM, in a final assay volume of 100 μL. The plates were incubated for 4 h. Radioactivity was counted with a beta counter for 1 min/well and the data analyzed using Graphpad Prism software. The radioligand was stored at −20°C and was used until the cpm of bound chemokine was ≥ 300 cpm.

Assay [2] deals with T2, CCR5 (Homo sapiens, UniProt P13501).
T2 construct: expressed in transfected cells; host or cells: CHO
T2 sequence (P13501 24-91): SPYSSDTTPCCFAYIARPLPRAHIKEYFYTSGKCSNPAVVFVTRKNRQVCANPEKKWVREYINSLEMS
Put plainly: Equilibrium competition receptor binding assay (SPA), [125I]-CCL5 on CHO/CCR5 membranes. The settings on record: SPA-based equilibrium competition binding. How it is done: Briefly, serial dilutions of the compounds were prepared in binding buffer (50 mM TrisHCl, pH 7.2, containing 1 mM CaCl2, 5 mM MgCl2, and 0.5% BSA). […] The plates were incubated for 4 h. Radioactivity was counted with a beta counter for 1 min/well and the data analyzed using Graphpad Prism software. The radioligand was stored at −20°C and was used until the cpm of bound chemokine was ≥ 300 cpm.

Assay [3] deals with T3, CCL5 (Homo sapiens, UniProt P13501).
T3 construct: made in house
T3 sequence (P13501 24-91): T2 sequence (P13501 24-91)
The assay can be described thus: NMR-based CCL5 binding, Kd from 15N-HSQC titration. Here is the method: These molecules were charged, and contained multiple acid groups, such as carboxylates and sulfonates. In addition, many of the molecules were aromatic, to provide some hydrophobicity. The library was pooled into sets containing five compounds and these pools mixed at 200 μM, with an equal concentration of CCL5 at 30°C, and a heteronuclear single quantum coherence (HSQC) spectrum recorded immediately. For pools that induced significant change in the protein chemical shifts, a second round of screening was performed in which each of the five compounds was added individually to the protein solution. […] Dissociation constants were obtained by fitting the recorded chemical shift as a function of increasing ligand concentrations with: (1) δobs=δf+LbΔb −f in which δobs is the observed chemical shift at each point of the titration curve, δf is the chemical shift of the free protein and Δb − f is the difference in chemical shift between free and fully complexed protein.

The target in assay [4] is T4, CCL5 binding to heparin (Homo sapiens, UniProt P13501).
T4 sequence (P13501 24-91): T2 sequence (P13501 24-91)
The assay can be described thus: Immobilized heparin competition binding assay ([125I]-CCL5 on heparin-Sepharose beads). Conditions: [125I]-CCL5 0.05 nM, 4 h, read-out: IC50 for the inhibition of CCL5 binding to heparin. Here is the method: Competition experiments were performed as described elsewhere (Severin et al., [2010]). Briefly, heparin-Sepharose beads (Sepharose beads or binding buffer as a background control) and increasing amounts of antagonist were added to each well of a 96 well filter plate. [^125I]-CCL5, was added last, to reach a final concentration of 0.05 nM. The plates were incubated on a shaker at room temperature for 4 h. Each experiment was performed in triplicate, and the results are given as the mean of the three assays.

Assay [5] concerns CCL5-induced cellular recruitment into the peritoneal cavity. Put plainly: CCL5-induced peritoneal cellular recruitment. In kind it is in vivo, mouse. Conditions: CCL5 binders administered 30 min prior to CCL5 (Figure 4A, B).
For assay [6], the target named is T5, CCR5 (Homo sapiens, UniProt P51681).
T5 construct: expressed in transfected cells; host or cells: CHO
T5 sequence (P51681 whole entry, species assumed): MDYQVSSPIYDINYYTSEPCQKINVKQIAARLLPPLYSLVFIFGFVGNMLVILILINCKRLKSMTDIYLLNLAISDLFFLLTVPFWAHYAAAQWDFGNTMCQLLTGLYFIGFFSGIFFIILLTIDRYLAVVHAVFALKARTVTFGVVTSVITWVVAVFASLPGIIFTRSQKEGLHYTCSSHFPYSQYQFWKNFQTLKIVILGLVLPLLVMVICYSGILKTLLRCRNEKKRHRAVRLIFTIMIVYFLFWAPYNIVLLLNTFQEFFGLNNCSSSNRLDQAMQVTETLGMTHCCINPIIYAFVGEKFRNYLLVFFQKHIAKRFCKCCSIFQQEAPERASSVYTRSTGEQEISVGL
Put plainly: Equilibrium competition receptor binding assay with CCL3 as the ligand, CCR5. The settings on record: data not shown. Here is the method:
as §1, with “The assay was started by the addition of 25 μL [^125I]-CCL5 to give a concentration of 0.1 nM, in a final assay volume of 100 μL.” left out
(§2) A study of the relative affinity of Molecule 1 toward CCL5 and heparin molecules was first evaluated by competition experiments in which CCL5, immobilized on heparin beads, was competed off the beads by increasing concentrations of Molecule 1. […] Since the principal GAG binding motif of CCL5, the BBXB motif on the 40s loop, plays a role in binding to CCR1, we determined the capacity of Molecule 1 to inhibit the binding of the chemokine CCL5 to its receptors CCR1 and CCR5 using equilibrium competition binding with a SPA-based assay.

Assay [7] addresses T6, CCR1 (Homo sapiens, UniProt P32246).
T6 construct: expressed in transfected cells; host or cells: CHO
T6 sequence (P32246 1-355): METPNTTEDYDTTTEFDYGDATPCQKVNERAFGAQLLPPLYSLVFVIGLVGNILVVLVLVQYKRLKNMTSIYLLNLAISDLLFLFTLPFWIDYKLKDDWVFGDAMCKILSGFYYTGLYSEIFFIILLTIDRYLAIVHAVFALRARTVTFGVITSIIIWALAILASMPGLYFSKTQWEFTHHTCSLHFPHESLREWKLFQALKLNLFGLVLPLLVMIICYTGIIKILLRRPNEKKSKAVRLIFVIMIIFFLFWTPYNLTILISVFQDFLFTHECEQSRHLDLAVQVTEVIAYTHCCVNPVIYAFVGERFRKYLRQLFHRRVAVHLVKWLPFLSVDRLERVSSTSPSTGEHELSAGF
The assay can be described thus: Equilibrium competition receptor binding assay with CCL3 as the ligand, CCR1. Conditions: data not shown. Here is the method: as §1, with “The assay was started by the addition of 25 μL [^125I]-CCL5 to give a concentration of 0.1 nM, in a final assay volume of 100 μL.” left out
as §2

In general, IC50 refers to the concentration needed to halve the response being measured. One may read the Kd as a measure of binding affinity in units of concentration. Higher therefore signals a looser complex. In the case of `O=C(O)c1cc(S(=O)(=O)O)ccc1O` [Molecule 1], the half-maximal inhibitory concentration (IC50) is 6.7 µM in assay [1] and 320 µM in assay [4]. Besides, the “effect on CCL5 binding to CCR5” value in assay [2] is on record as “no effect”. Moreover, the “selective binding to CCL5 in the NMR screen” value in assay [3] (206 compound library, 200 μM, HSQC chemical shift changes) is recorded as “confirmed to be selectively binding to CCL5”. The compound also gave an equilibrium dissociation constant (Kd) in assay [3] (determined by protein NMR, pH 3.2, 30°C) of 20 µM. Also, the “cell recruitment to the peritoneum” value in assay [5] is “inhibited cell recruitment to the peritoneum in a dose dependent manner”. In assay [6], the “competition of CCL3 binding to CCR5” value was “no competition”. Further, the “competition of CCL3 binding to CCR1” value in assay [7] is given as “no competition”.
